Data: patent publication US12202835B2, “Substituted aromatic ring-linked dioxinoquinazolines and dioxinoquinolines as kinase inhibitors” (BEIJING SCITECH-MQ PHARMACEUTICALS LIMITED, priority 2018, dated 2025)
Where two headings read alike, the source gives them in different places.

Tests used:
[1] = test system: EBC1 cells; assay: Assay for inhibiting the proliferation of EBC1 cells (CCK-8); type: cell-based
Procedure: In particular, the method of the assay of small molecular compounds for inhibiting cell proliferation is as follows: • 1. Cells cultured to a logarithmic growth phase (adherent cells need to be digested with trypsin and neutralized) were taken, pipetted evenly, transferred to a 15 mL centrifuge tube, and centrifuged at 1000 rpm at room temperature for 4 minutes; • 2. The supernatant was discarded; 5 mL of complete medium was added and pipetted evenly; 10 μL of cell suspension was taken out, mixed well with 10 μL of 0.4% trypan blue, and counted under a cell counter; the proportion of living cells was ensured to be above 90%; • 3. 80 μL of cell suspension per well was seeded into a 96-well plate according to the conditions shown in the attached table, and cultured overnight; in the outer 36 wells of the 96-well plate, no cells were added but only sterile water was added; only the inner 60 wells were used for cell assay and control; • 4. 5×compound dilution: the compounds were serially diluted 3-fold to obtain a total of 9 concentrations; 80-fold overall dilution was completed with complete medium, the resulting concentration was 5 times the final drug concentration, and DMSO concentration was 1.25%; • 5. 20 μL of the corresponding compounds with different concentration gradients were added to each well of assay wells of the 96-well plate; 20 μL of complete medium was added to positive and negative control wells and shaken well; and the final concentration of DMSO in each well was 0.25%; • 6. After 72 hours of incubation, 10 μL of CCK-8 reagent was added to each well and further incubated at 37° C. for 1-2 hours; and the OD value was read at 450 nm; • 7. Cell survival rate (%)=[(As−Ab)/(Ac−Ab)]*100% • As: Assay well (medium containing cells, CCK-8, compound), • Ac: Control well (medium containing cells, CCK-8), • Ab: Blank well (CCK-8, medium without cell and compound), • 8. The values were imported into Graphpad Prism 5 software for IC50 calculation.

[2] = biological target: c-MET kinase (Homo sapiens (Human), UniProt P08581); assay: Assay of small molecular compounds for inhibiting the activity of c-MET kinase (LANCE TR-FRET); type: biochemical; settings: read-out: CMET IC50
Outline: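 LANCE TR-FRET assay with c-MET at 1 nM final after a 5 min room-temperature preincubation with compound (11-point, 3-fold series, 2500–0.042 nM final, 4% DMSO). ULight-JAK-1 (Tyr1023) peptide (100 nM final) and ATP (10 μM final) reacted 60 min in the dark. Inhibition was taken relative to controls, then IC50 fitted.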

[3] = biological target: MER kinase (Homo sapiens (Human), UniProt Q12866); assay: Assay of small molecular compounds for inhibiting the activity of MER kinase (LANCE TR-FRET); type: biochemical
Outline: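 MER kinase preincubated 5 min at RT with compound (11 points, 0.042-2500 nM final), then ULight-poly GT and ATP added (4× stocks 200 nM and 20 μM) for 60 min at RT, 1% DMSO. Phosphorylation detected by LANCE TR-FRET; IC50 from % inhibition versus controls.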

Sequence of c-MET kinase (P08581 25-1390): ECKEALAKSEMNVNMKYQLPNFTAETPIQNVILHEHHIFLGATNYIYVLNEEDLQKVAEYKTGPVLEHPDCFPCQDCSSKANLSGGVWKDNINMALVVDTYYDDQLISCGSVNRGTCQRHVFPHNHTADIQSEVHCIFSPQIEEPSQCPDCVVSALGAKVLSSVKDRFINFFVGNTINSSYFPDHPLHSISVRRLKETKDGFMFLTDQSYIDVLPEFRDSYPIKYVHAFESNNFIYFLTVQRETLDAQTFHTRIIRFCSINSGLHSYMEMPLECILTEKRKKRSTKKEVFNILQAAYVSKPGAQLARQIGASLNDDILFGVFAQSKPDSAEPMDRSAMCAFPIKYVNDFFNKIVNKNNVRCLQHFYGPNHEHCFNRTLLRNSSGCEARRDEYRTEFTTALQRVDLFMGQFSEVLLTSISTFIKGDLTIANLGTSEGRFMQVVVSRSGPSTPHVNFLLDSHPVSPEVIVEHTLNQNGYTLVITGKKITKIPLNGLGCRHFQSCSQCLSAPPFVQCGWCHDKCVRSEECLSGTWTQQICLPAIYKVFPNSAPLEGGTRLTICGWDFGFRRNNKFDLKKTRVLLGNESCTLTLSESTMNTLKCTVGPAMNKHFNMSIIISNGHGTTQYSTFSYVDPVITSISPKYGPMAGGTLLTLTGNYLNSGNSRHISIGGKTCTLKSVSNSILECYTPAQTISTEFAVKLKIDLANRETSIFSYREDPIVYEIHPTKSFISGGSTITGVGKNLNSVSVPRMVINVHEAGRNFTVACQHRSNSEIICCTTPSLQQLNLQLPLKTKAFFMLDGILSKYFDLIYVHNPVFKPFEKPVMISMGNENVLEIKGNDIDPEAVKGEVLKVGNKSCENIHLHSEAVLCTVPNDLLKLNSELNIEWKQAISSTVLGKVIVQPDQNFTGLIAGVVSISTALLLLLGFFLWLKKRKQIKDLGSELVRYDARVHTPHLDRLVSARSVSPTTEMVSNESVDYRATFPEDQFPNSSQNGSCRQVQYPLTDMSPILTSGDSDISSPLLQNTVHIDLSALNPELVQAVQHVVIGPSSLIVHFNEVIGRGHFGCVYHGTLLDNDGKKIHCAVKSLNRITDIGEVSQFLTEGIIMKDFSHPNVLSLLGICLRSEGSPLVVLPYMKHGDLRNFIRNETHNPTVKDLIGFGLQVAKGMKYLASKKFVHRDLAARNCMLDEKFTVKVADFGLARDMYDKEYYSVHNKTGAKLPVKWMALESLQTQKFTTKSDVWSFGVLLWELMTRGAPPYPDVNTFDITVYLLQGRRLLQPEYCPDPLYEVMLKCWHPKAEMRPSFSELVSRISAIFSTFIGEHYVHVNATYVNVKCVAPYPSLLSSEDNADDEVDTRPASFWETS
Sequence of MER kinase (Q12866 21-999): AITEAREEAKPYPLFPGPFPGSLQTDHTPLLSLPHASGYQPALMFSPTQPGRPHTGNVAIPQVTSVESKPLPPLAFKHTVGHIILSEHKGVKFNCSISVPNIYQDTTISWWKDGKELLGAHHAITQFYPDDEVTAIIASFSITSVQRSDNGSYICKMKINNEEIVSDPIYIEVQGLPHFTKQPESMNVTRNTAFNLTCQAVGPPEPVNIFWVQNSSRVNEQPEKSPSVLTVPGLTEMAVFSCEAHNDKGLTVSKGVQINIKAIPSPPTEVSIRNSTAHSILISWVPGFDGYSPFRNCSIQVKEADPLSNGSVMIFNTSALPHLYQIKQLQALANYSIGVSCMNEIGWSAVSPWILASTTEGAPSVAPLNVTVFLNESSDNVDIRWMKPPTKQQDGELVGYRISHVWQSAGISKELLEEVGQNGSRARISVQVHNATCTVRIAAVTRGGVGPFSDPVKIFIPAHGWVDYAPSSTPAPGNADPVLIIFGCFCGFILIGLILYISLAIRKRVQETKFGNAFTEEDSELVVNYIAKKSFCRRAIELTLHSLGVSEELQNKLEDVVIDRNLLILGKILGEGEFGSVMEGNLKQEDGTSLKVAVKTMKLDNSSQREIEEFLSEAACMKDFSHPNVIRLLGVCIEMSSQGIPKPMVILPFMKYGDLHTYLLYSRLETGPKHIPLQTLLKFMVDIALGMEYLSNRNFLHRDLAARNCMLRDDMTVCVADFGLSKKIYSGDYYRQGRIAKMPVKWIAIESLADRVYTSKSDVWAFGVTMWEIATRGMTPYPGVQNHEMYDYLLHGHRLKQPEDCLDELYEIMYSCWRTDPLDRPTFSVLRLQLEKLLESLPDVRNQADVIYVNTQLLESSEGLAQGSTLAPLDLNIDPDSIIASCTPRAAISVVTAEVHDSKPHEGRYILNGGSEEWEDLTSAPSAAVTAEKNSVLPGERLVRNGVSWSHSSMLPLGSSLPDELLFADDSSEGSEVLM

SMILES	IC50 ([1]; Homo sapiens, EBC-1) [nM]	IC50 [2] [nM]	IC50 [3] [nM]	IC50 [1] [nM]
O=C(Nc1ccc(Oc2ncnc3cc(OCCCN4CCOCC4)c4c(c23)OCCO4)c(F)c1)c1cccn(-c2ccc(F)cc2)c1=O [Example 4, N-(3-fluoro-4-((5-(3-morpholinopropoxy)-2,3-dihydro-[1,4]dioxino[2,3-f]quinazolin-10-yl)oxy)phenyl)-1-(4-fluorophenyl)-2-oxo-1,2-dihydropyridine-3-carboxamide]	≤ 50	≤ 50	≤ 50	
COc1ccn(-c2ccc(F)cc2)c(=O)c1C(=O)Nc1ccc(Oc2ncnc3cc(OCCCN4CCOCC4)c4c(c23)OCCO4)c(F)c1 [Example 5, N-(3-fluoro-4-((5-(3-morpholinopropoxy)-2,3-dihydro-[1,4]dioxino[2,3-f]quinazolin-10-yl)oxy)phenyl)-1-(4-fluorophenyl)-4-methoxy-2-oxo-1,2-dihydropyridine-3-carboxamide]	≤ 50	≤ 50	≤ 50	
CCOc1ccn(-c2ccc(F)cc2)c(=O)c1C(=O)Nc1ccc(Oc2ncnc3cc(OCCCN4CCOCC4)c4c(c23)OCCO4)c(F)c1 [Example 6, N-(3-fluoro-4-((5-(3-morpholinopropoxy)-2,3-dihydro-[1,4]dioxino[2,3-f]quinazolin-10-yl)oxy)phenyl)-1-(4-fluorophenyl)-4-ethoxy-2-oxo-1,2-dihydropyridine-3-carboxamide]	≤ 50	≤ 50	≤ 50	
COc1cc2nccc(Oc3ccc(NC(=O)c4cn(C)c(=O)n(-c5ccc(F)cc5)c4=O)cc3F)c2c2c1OCCO2 [Example 13, N-(3-fluoro-4-((5-methoxy-2,3-dihydro-[1,4]dioxino[2,3-f]quinolin-10-yl)oxy)phenyl)-3-(4-fluorophenyl)-1-methyl-2,4-dioxo-1,2,3,4-tetrahydropyrimidine-5-carboxamide]	50 to 200	≤ 50	≤ 50	
COc1cc2nccc(Oc3ccc(NC(=O)c4cccn(-c5ccc(F)cc5)c4=O)cc3F)c2c2c1OCCO2 [Example 17, N-(3-fluoro-4-((5-methoxy-2,3-dihydro-[1,4]dioxino[2,3-f]quinolin-10-yl)oxy)phenyl)-1-(4-fluorophenyl)-2-oxo-1,2-dihydropyridine-3-carboxamide]	≤ 50	≤ 50	≤ 50	
COc1cc2nccc(Oc3ccc(NC(=O)c4c(OC)ccn(-c5ccc(F)cc5)c4=O)cc3F)c2c2c1OCCO2 [Example 18, N-(3-fluoro-4-((5-methoxy-2,3-dihydro-[1,4]dioxino[2,3-f]quinolin-10-yl)oxy)phenyl)-1-(4-fluorophenyl)-4-methoxy-2-oxo-1,2-dihydropyridine-3-carboxamide]	≤ 50	≤ 50	≤ 50	
CCOc1ccn(-c2ccc(F)cc2)c(=O)c1C(=O)Nc1ccc(Oc2ccnc3cc(OC)c4c(c23)OCCO4)c(F)c1 [Example 19, N-(3-fluoro-4-((5-methoxy-2,3-dihydro-[1,4]dioxino[2,3-f]quinolin-10-yl)oxy)phenyl)-1-(4-fluorophenyl)-4-ethoxy-2-oxo-1,2-dihydropyridine-3-carboxamide]	≤ 50	≤ 50	≤ 50	
COc1ccn(-c2ccc(F)cc2)c(=O)c1C(=O)Nc1ccc(Oc2ccnc3cc(OCCCN4CCOCC4)c4c(c23)OCCO4)c(F)c1 [Example 21, N-(3-fluoro-4-((5-(3-morpholinopropoxy)-2,3-dihydro-[1,4]dioxino[2,3-f]quinolin-10-yl)oxy)phenyl)-1-(4-fluorophenyl)-4-methoxy-2-oxo-1,2-dihydropyridine-3-carboxamide]	≤ 50	≤ 50	≤ 50	
CCOc1ccn(-c2ccc(F)cc2)c(=O)c1C(=O)Nc1ccc(Oc2ccnc3cc(OCCCN4CCOCC4)c4c(c23)OCCO4)c(F)c1 [Example 22, N-(3-fluoro-4-((5-(3-morpholinopropoxy)-2,3-dihydro-[1,4]dioxino[2,3-f]quinolin-10-yl)oxy)phenyl)-1-(4-fluorophenyl)-4-ethoxy-2-oxo-1,2-dihydropyridine-3-carboxamide]	≤ 50	≤ 50	≤ 50	
COc1cn(-c2ccc(F)cc2C)nc1C(=O)Nc1ccc(Oc2ccnc3cc(OCCCN4CCOCC4)c4c(c23)OCCO4)c(F)c1 [Example 27, 1-(4-fluoro-2-methylphenyl)-N-(3-fluoro-4-((5-(3-morpholinopropoxy)-2,3-dihydro-[1,4]dioxino[2,3-f]quinolin-10-yl)oxy)phenyl)-4-methoxy-1H-pyrazole-3-carboxamide]	50 to 200	≤ 50	≤ 50	
O=C(Nc1ccc(Oc2ccnc3cc(OCCCN4CCCCC4)c4c(c23)OCCO4)c(F)c1)c1cccn(-c2ccc(F)cc2)c1=O [Example 31, N-(3-fluoro-4-((5-(3-(piperidin-1-yl)propoxy)-2,3-dihydro-[1,4]dioxino[2,3-f]quinolin-10-yl)oxy)phenyl)-1-(4-fluorophenyl)-2-oxo-1,2-dihydropyridine-3-carboxamide]		≤ 50	≤ 50	≤ 50
COc1ccn(-c2ccc(F)cc2)c(=O)c1C(=O)Nc1ccc(Oc2ccnc3cc(OCCCN4CCCCC4)c4c(c23)OCCO4)c(F)c1 [Example 32, N-(3-fluoro-4-((5-(3-(piperidin-1-yl)propoxy)-2,3-dihydro-[1,4]dioxino[2,3-f]quinolin-10-yl)oxy)phenyl)-1-(4-fluorophenyl)-4-methoxy-2-oxo-1,2-dihydropyridine-3-carboxamide]	≤ 50	≤ 50	≤ 50	
CCOc1ccn(-c2ccc(F)cc2)c(=O)c1C(=O)Nc1ccc(Oc2ccnc3cc(OCCCN4CCCCC4)c4c(c23)OCCO4)c(F)c1 [Example 33, N-(3-fluoro-4-((5-(3-(piperidin-1-yl)propoxy)-2,3-dihydro-[1,4]dioxino[2,3-f]quinolin-10-yl)oxy)phenyl)-1-(4-fluorophenyl)-4-ethoxy-2-oxo-1,2-dihydropyridine-3-carboxamide]	≤ 50	≤ 50	≤ 50	
COCCOc1cc2nccc(Oc3ccc(NC(=O)c4cccn(-c5ccc(F)cc5)c4=O)cc3F)c2c2c1OCCO2 [Example 34, N-(3-fluoro-4-((5-(2-methoxyethoxy)-2,3-dihydro-[1,4]dioxino[2,3-f]quinolin-10-yl)oxy)phenyl)-1-(4-fluorophenyl)-2-oxo-1,2-dihydropyridine-3-carboxamide]	≤ 50	≤ 50	≤ 50	
COCCOc1cc2nccc(Oc3ccc(NC(=O)c4c(OC)ccn(-c5ccc(F)cc5)c4=O)cc3F)c2c2c1OCCO2 [Example 35, N-(3-fluoro-4-((5-(2-methoxyethoxy)-2,3-dihydro-[1,4]dioxino[2,3-f]quinolin-10-yl)oxy)phenyl)-1-(4-fluorophenyl)-4-methoxy-2-oxo-1,2-dihydropyridine-3-carboxamide]	≤ 50	≤ 50	≤ 50	
CCOc1ccn(-c2ccc(F)cc2)c(=O)c1C(=O)Nc1ccc(Oc2ccnc3cc(OCCOC)c4c(c23)OCCO4)c(F)c1 [Example 36, N-(3-fluoro-4-((5-(2-methoxyethoxy)-2,3-dihydro-[1,4]dioxino[2,3-f]quinolin-10-yl)oxy)phenyl)-1-(4-fluorophenyl)-4-ethoxy-2-oxo-1,2-dihydropyridine-3-carboxamide]	≤ 50	≤ 50	≤ 50	
CCOc1ccn(-c2ccc(F)cc2)c(=O)c1C(=O)Nc1ccc(Oc2ccnc3ccc4c(c23)OCCO4)cc1F [Example 171, N-(4-((2,3-dihydro-[1,4]dioxino[2,3-f]quinolin-10-yl)oxy)-2-fluorophenyl)-1-(4-fluorophenyl)-4-ethoxy-2-oxo-1,2-dihydropyridine-3-carboxamide]		≤ 50	≤ 50	
COc1ccn(-c2ccc(F)cc2)c(=O)c1C(=O)Nc1ccc(Oc2ccnc3ccc4c(c23)OCCO4)cc1F [Example 172, N-(4-((2,3-dihydro-[1,4]dioxino[2,3-f]quinolin-10-yl)oxy)-2-fluorophenyl)-1-(4-fluorophenyl)-4-methoxy-2-oxo-1,2-dihydropyridine-3-carboxamide]		50 to 500	≤ 50	
